≈ marks a conversion by molar mass, not a printed value. Square brackets hold non-standard residues; d marks the D form. Peptide text beside a SMILES is read from it. * marks the point of attachment. Octanoyl = CCCCCCCC(=O)*
How the values were obtained:
Assay type in all cases: cell-based
melanoma cell line WM793 = test: Melanoma growth reduction (Example 5); conditions: 2% tumor media
Protocol: (§1) Melanoma cell lines WM-239-A (metastatic melanoma), WM278 (primary melanoma), WM793 (primary melanoma) and WM1158 (metastatic melanoma) were seeded in 24-well plates at a concentration of 7.5×10^4 cells/ml containing 2% tumor medium.
(§2) Peptides (SEQ ID NO:6) and D-(SEQ ID NO:6), in which each amino acid residue is a D-amino residue or a glycine residue, were frozen at -20° C. in […] aliquots at a concentration of 25 mg/ml. Each peptide was then dissolved in sterile distilled water at a dilution of 1:1,000 or 1:5,000 to provide peptide concentrations of 25 μg/ml or 5 μg/ml, respectively. The peptides at the 25 μg/ml or 5 μg/ml concentrations were then added to the plates containing the melanoma cells. The amount of ^3 H-thymidine incorporation for each well was taken on days 1, 3, and 7.
(§3) Peptides (SEQ ID NO:10) and D-(SEQ ID NO:10), in which each amino acid is a D-amino acid residue, are tested for % growth reduction of melanoma cell lines WM852 (grown in 2% tumor media or PF media), WM983A (grown in 2% tumor media or PF media), WM793 (grown in 2% tumor media), and WM1985 (grown in PF media) according to the procedure of Example 4, except that only a concentration of 25 μg/ml was employed for (SEQ ID NO:10), and concentrations of 1.0, 2.5, 5.0, 10.0, and 25.0 μg/ml were employed for D-(SEQ ID NO:10).

[1] = test system: melanoma cell line WM983A; test: Melanoma growth reduction (Example 5); conditions: for % Growth Reduction (7 days) WM-983A-2%: 2% tumor media; for % Growth Reduction (7 days) WM983A-PF: PF media
Protocol: as §1, §2, §3

[2] = test system: melanoma cell line WM1985; test: Melanoma growth reduction (Example 5); conditions: PF media
Protocol: as §1, §2, §3

melanoma cell line WM852 = test: Melanoma growth reduction (Example 5); conditions: for % Growth Reduction (7 days) WM852-2%: 2% tumor media; for % Growth Reduction (7 days) WM852-PF: PF media
Protocol: as §1, §2, §3

C. albicans = test: MIC assay, microtiter broth dilution (NCCLS M7-T2); conditions: Mueller Hinton broth, 16-20 hours at 37° C.
Protocol: (§4) The procedure for the following antibacterial assay is based upon the guidelines of the National Committee for Clinical Laboratory Standards, Document M7-T2, Volume 8, No. 8, 1988.
(§5) were prepared at a concentration of 512 μpg/ml in sterile deionized distilled water and stored at -70° C.
(§6) 1.5×10^5 CFUs/ml of either S. aureus ATCC 25923, E. coli ATCC 25922, P. aeruginosa ATCC 27853, or C. albicans were added to the wells in full strength Mueller Hinton broth (BBL 11443) from a mid-log culture. The inoculums are standarized spectrophotometrically at 600 nm and is verified by colony counts. The plates are incubated for 16-20hours at 37° C., and the minimal inhibitory concentration (MIC) for each peptide is determined. Minimal inhibitory concentration is defined as the lowest concentration of peptide which produces a clear well in the microtiter plate.

E. coli ATCC 25922 = test: Antibacterial MIC assay, microtiter broth dilution (NCCLS M7-T2); conditions: Mueller Hinton broth, 16-20 hours at 37° C.
Protocol: as §4, §5, §6

S. aureus ATCC 25923 = test: as above; conditions: Mueller Hinton broth, 16-20 hours at 37° C.
Protocol: as §4, §5, §6

P. aeruginosa ATCC 27853 = test: as above; conditions: Mueller Hinton broth, 16-20 hours at 37° C.
Protocol: as §4, §5, §6

For CC(C)C[C@@H](NC(=O)[C@@H](CCCCN)NC(=O)[C@@H](CCCCN)NC(=O)[C@@H](CC(C)C)NC(=O)[C@@H](CC(C)C)NC(=O)[C@@H](CCCCN)NC(=O)[C@@H](CCCCN)NC(=O)[C@@H](CC(C)C)NC(=O)[C@@H](CCCCN)NC(=O)[C@@H](CCCCN)NC(=O)[C@@H](CC(C)C)NC(=O)[C@@H](CC(C)C)NC(=O)[C@@H](CCCCN)NC(=O)[C@H](N)CCCCN)C(N)=O [D-(SEQ ID NO:10)] (H-[dK][dK][dL][dL][dK][dK][dL][dK][dK][dL][dL][dK][dK][dL]-NH2), the “% Growth Reduction (7 days) WM793-2%” value (melanoma cell line WM793; dose 2.5 μg/ml) was 18.2%, the “% Growth Reduction (7 days) WM793-2%” value (melanoma cell line WM793; dose 5.0 μg/ml) was 0% and the “% Growth Reduction (7 days) WM793-2%” value (melanoma cell line WM793; dose 10.0 μg/ml) was 12.3%. For the same molecule, the “% Growth Reduction (7 days) WM793-2%” value (melanoma cell line WM793; dose 25 μg/ml) was 84.9%, the “% Growth Reduction (7 days) WM-983A-2%” value ([1]; dose 1.0 μg/ml) was 0% and the “% Growth Reduction (7 days) WM983A-PF” value ([1]; dose 1.0 μg/ml) was 3.3%. The “% Growth Reduction (7 days) WM-983A-2%” value ([1]; dose 2.5 μg/ml) was 0%, the “% Growth Reduction (7 days) WM983A-PF” value ([1]; dose 2.5 μg/ml) was 13.9% and the “% Growth Reduction (7 days) WM-983A-2%” value ([1]; dose 5.0 μg/ml) was 0%. For the same molecule, the “% Growth Reduction (7 days) WM983A-PF” value ([1]; dose 5.0 μg/ml) was 29.8%, the “% Growth Reduction (7 days) WM-983A-2%” value ([1]; dose 10.0 μg/ml) was 13.8% and the “% Growth Reduction (7 days) WM983A-PF” value ([1]; dose 10.0 μg/ml) was 84.9%. For the same molecule, the “% Growth Reduction (7 days) WM-983A-2%” value ([1]; dose 25 μg/ml) was 71.3%, the “% Growth Reduction (7 days) WM983A-PF” value ([1]; dose 25 μg/ml) was 90.0% and the “% Growth Reduction (7 days) WM1985-PF” value ([2]; dose 1.0 μg/ml) was 5.5%. The “% Growth Reduction (7 days) WM1985-PF” value ([2]; dose 2.5 μg/ml) was 23.6%, the “% Growth Reduction (7 days) WM1985-PF” value ([2]; dose 5.0 μg/ml) was 52.1% and the “% Growth Reduction (7 days) WM1985-PF” value ([2]; dose 10.0 μg/ml) was 84.3%. The “% Growth Reduction (7 days) WM1985-PF” value ([2]; dose 25 μg/ml) was 92.6%, the “% Growth Reduction (7 days) WM852-2%” value (melanoma cell line WM852; dose 1.0 μg/ml) was 3.0% and the “% Growth Reduction (7 days) WM852-PF” value (melanoma cell line WM852; dose 1.0 μg/ml) was 2.9%. The “% Growth Reduction (7 days) WM852-2%” value (melanoma cell line WM852; dose 2.5 μg/ml) was 5.4%, the “% Growth Reduction (7 days) WM852-PF” value (melanoma cell line WM852; dose 2.5 μg/ml) was 22.9% and the “% Growth Reduction (7 days) WM852-2%” value (melanoma cell line WM852; dose 5.0 μg/ml) was 8.8%. For the same molecule, the “% Growth Reduction (7 days) WM852-PF” value (melanoma cell line WM852; dose 5.0 μg/ml) was 32.4%, the “% Growth Reduction (7 days) WM852-2%” value (melanoma cell line WM852; dose 10.0 μg/ml) was 16.2% and the “% Growth Reduction (7 days) WM852-PF” value (melanoma cell line WM852; dose 10.0 μg/ml) was 80.6%. The “% Growth Reduction (7 days) WM852-2%” value (melanoma cell line WM852; dose 25 μg/ml) was 84.7% and the “% Growth Reduction (7 days) WM852-PF” value (melanoma cell line WM852; dose 25 μg/ml) was 91.1%.

CCCCCCCC(=O)N[C@@H](CC(C)C)C(=O)N[C@@H](CCCCN)C(=O)N[C@@H](CCCCN)C(=O)N[C@@H](CC(C)C)C(=O)N[C@@H](CC(C)C)C(=O)N[C@@H](CCCCN)C(=O)N[C@@H](CCCCN)C(=O)N[C@@H](CC(C)C)C(=O)N[C@@H](CCCCN)C(=O)N[C@@H](CCCCN)C(=O)N[C@@H](CC(C)C)C(N)=O [Oct-(SEQ ID NO:11)-NH2, reference compound] (Octanoyl-LKKLLKKLKKL-NH2) was tested, and the “MIC C. albicans” value (C. albicans) was 32 µg/mL (≈ 21.6 µM), the “MIC E. coli” value (E. coli ATCC 25922) was 8 µg/mL (≈ 5.41 µM) and the “MIC S. aureus” value (S. aureus ATCC 25923) was 4 µg/mL (≈ 2.71 µM). The “MIC P. aeruginosa” value (P. aeruginosa ATCC 27853) was 4 µg/mL (≈ 2.71 µM).

In the case of CCCCCCCC(=O)N[C@H](CC(C)C)C(=O)N[C@H](CCCCN)C(=O)N[C@H](CCCCN)C(=O)N[C@H](CC(C)C)C(=O)N[C@H](CC(C)C)C(=O)N[C@H](CCCCN)C(=O)N[C@H](CCCCN)C(=O)N[C@H](CC(C)C)C(=O)N[C@H](CCCCN)C(=O)N[C@H](CCCCN)C(=O)N[C@H](CC(C)C)C(N)=O [Oct-D-(SEQ ID NO:11)-NH2] (Octanoyl-[dL][dK][dK][dL][dL][dK][dK][dL][dK][dK][dL]-NH2), the “MIC C. albicans” value (C. albicans) is reported as 32 µg/mL (≈ 21.6 µM), the “MIC E. coli” value (E. coli ATCC 25922) is reported as 8 µg/mL (≈ 5.41 µM) and the “MIC S. aureus” value (S. aureus ATCC 25923) is reported as 4 µg/mL (≈ 2.71 µM). For the same molecule, the “MIC P. aeruginosa” value (P. aeruginosa ATCC 27853) was 4 µg/mL (≈ 2.71 µM).

Source: patent publication US5792831A, “Analogues of magainin peptides containing D-amino acids” (priority 1994, dated 1998)
